# Experiments:
# Assay type in all cases: binding
# [1] = molecular target: T1, Bacillus anthracis DHPS (BaDHPS) (Bacillus anthracis, UniProt Q81VW8)
# BSA = BSA (Bos taurus, UniProt P02769); experiment: Incubation of probe in 1% BSA monitored by FP; conditions: FP absorbance significantly reduced
# [2] = molecular target: T1, Bacillus anthracis DHPS (BaDHPS); remark: listed apart in the source
# T1 sequence (Q81VW8 1-280): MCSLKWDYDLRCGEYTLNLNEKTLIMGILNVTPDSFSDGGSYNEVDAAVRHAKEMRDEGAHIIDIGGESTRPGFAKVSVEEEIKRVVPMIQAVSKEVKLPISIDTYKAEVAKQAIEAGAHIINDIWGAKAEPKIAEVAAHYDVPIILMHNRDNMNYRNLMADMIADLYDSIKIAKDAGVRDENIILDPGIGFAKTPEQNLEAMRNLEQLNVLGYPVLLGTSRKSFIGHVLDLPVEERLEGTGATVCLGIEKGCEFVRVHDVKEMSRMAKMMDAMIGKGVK
# Sequence of BSA (P02769 25-607): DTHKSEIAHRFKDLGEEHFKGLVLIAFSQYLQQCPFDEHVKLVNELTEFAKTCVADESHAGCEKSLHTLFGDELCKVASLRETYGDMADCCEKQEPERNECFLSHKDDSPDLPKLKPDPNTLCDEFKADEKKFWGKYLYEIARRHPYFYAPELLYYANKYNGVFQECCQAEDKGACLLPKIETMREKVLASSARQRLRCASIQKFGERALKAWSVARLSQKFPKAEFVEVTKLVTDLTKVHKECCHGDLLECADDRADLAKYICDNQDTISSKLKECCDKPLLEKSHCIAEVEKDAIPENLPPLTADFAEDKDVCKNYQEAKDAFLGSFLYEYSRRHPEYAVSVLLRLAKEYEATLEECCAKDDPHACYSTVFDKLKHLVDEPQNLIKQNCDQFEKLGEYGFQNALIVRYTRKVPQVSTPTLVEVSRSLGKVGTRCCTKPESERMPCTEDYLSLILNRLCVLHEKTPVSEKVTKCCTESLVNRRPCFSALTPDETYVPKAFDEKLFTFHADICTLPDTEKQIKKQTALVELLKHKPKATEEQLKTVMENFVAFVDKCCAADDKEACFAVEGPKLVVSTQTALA
structure (smiles),measurement,setting,value
Nc1nc2ncc(CNc3ccc(C(=O)O)cc3)nc2c(=O)[nH]1 [pteroic acid],Competitive displacement of FP probe 4 from BaDHPS,[1],able to compete off the FP probe 4
"Nc1ccc(S(N)(=O)=O)cc1 [SIA, sulfanilamide]",Competitive displacement of FP probe 4 from BaDHPS,[1],not able to compete off the FP probe 4
Nc1nc(NCCOCCOCCNC(=O)c2ccc3c(c2)C(=O)OC32c3ccc(O)cc3Oc3cc(O)ccc32)c(N=O)c(=O)[nH]1 [compound 3],Non-specific protein binding (FP in 1% BSA),BSA,non-specific protein binder
same,Binding site N (ITC),[2],1.59 ± 0.0108
same,ΔH (ITC),[2],-5.9 ± 0.059 kcal/mol
"CC(C(=O)NCCOCCOCCNC(=O)c1ccc2c(c1)C(=O)OC21c2ccc(O)cc2Oc2cc(O)ccc21)c1nn(C)c2nc(N)[nH]c(=O)c2c1=O (centres unmarked) [compound 4, N-(2-(2-(2-(2-(7-Amino-1-methyl-4,5-dioxo-1,4,5,6-tetrahydropyridazino[3,4-d]pyrimidin-3-yl)propanamido)ethoxy)ethoxy)ethyl)-3',6'-dihydroxy-3-oxo-3H-spiro[isobenzofuran-1,9'-xanthene]-5-carboxamide]",Binding site N (ITC),[2],1.09 ± 0.0464
same,ΔH (ITC),[2],-2.8 ± 0.159 kcal/mol
"Cc1cc(NS(=O)(=O)c2ccc(N)cc2)no1 [SMX, sulfamethoxazole]",Competitive displacement of FP probe 4 from BaDHPS,[1],not able to compete off the FP probe 4
